Values of other authors as cited in patent EP0514015A1, “Control of sex differentiation in fish” (MERCK & CO. INC., priority 1991, dated 1992).

Assays:
Oreochromis aureus = conditions: tilapia, broad range of doses, fed to 3 to 5-day old fry for a period of 22 days
Cyprinus carpio = conditions: carp, oral administration at 50ppm in feed from weeks 6 through 11 after hatching

Compound | sex-reversing (Oreochromis aureus) | phenotypic males (Cyprinus carpio)
C#C[C@]1(O)CC[C@H]2[C@@H]3CCC4=CC(=O)CC[C@]4(C)[C@H]3CC[C@@]21C [17-alpha-ethynyltestosterone] | effective | 
C[C@]12CCC(=O)C=C1CC[C@@H]1[C@@H]2CC[C@@]2(C)[C@H]1CC[C@]2(C)O [17-alpha-methyltestosterone] | effective | greater than 90%
